Holding throughout (test): NCI-60 cell line screen, 48 h
Assay [1] relates to RXF 393 renal.
Assay [2] deals with SR leukemia.
Assay [3] deals with MCF7 breast.
Assay [4] relates to KM12 colon.
Assay [5] concerns M14 melanoma.
Assay [6] has as its system MDA-MB-231 breast.
In assay [7] the test system is OVCAR-5 ovarian.
The subject of assay [8] is LOX IMVI melanoma.
Assay [9] relates to HOP-92 NSCLC.
In assay [10] the test system is CCRF-CEM leukemia.

The values that follow come from PubChem BioAssay (NCI).

The structures appear in SMILES notation.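 Briefly, cells in 96-well plates were exposed to five compound concentrations for 48 h, and endpoints were estimated by linear interpolation. GI50 is the concentration that inhibits growth by half. Definition used: TGI = concentration required for complete inhibition of growth.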 *1 amine or outer side, *2 acyl side, *3 side chain or, on linkers, in order; H or OH if unused. Where a SMILES comes first, the peptide text is derived from it. [ ]: non-standard residue; d: D form. The star is where a group is joined. ξ: configuration not given here. X15 = CCN(CC)c1ccc2cc(N*)c(=O)oc2c1; dIva = CC[C@@](C)(N)C(=O)O; X14 = O=C(OCCN[*:1])[*:2]; Aib = CC(C)(N)C(=O)O; ξP = O=C(O)C1CCCN1; βAla = NCCC(=O)O

In the case of `CCOC(=O)c1nc(Nc2ccc(Cl)cc2)c2ccccc2n1`, the GI50 in [1] was 7.35 µM; in assay [2], 8.87 µM; in assay [3], 13.6 µM; in [4], 7.42 µM; in assay [5] it was 12.4 µM; in assay [6], 14.1 µM. Also, the GI50 in [7] was 10.7 µM; in assay [8] it was 9.92 µM; in [9], 9.49 µM. Moreover, the TGI in [1] was 16.8 µM; in assay [2] it was above 50 µM; in assay [3] it was above 50 µM; in [4] it was 15.1 µM; in [5], 30.6 µM; in assay [6] it was 42 µM. The TGI in assay [7] is 22.3 µM; in [8] it was 18.6 µM; in assay [9], 26.8 µM.

For the compound `CCN(CC)c1ccc2cc(NC(=O)OCCNC(=O)CCNC(=O)[C@H](CC(C)C)NC(=O)C(C)(C)NC(=O)C(C)(C)NC(=O)[C@H](CC(C)C)NC(=O)CCNC(=O)C(C)(C)NC(=O)[C@H](CC(C)C)NC(=O)CCNC(=O)[C@@](C)(CC)NC(=O)[C@H](C)NC(=O)CCNC(=O)C(C)(C)NC(=O)[C@H](C)NC(=O)[C@@H]3CCCN3C(=O)[C@@](C)(CC)NC(=O)[C@H](Cc3ccccc3)NC(=O)C3CCCN3C(=O)C(C)(C)NC(=O)C3CCCN3C(=O)C(C)(C)NC(C)=O)c(=O)oc2c1` (stereo partly drawn) (Ac-[Aib][ξP][Aib][ξP]F[dIva]PA[Aib][βAla]A[dIva][βAla]L[Aib][βAla]L[Aib][Aib]L[βAla][X14]-X15), the GI50 in assay [1] was 0.0049 µM; in assay [2] it was 0.00423 µM; in assay [3], 0.00313 µM; in [10] it was 0.00465 µM; in [4], 0.00425 µM; in assay [5], 0.00838 µM. The GI50 in assay [7] was 0.00506 µM; in assay [8], 0.00192 µM; in assay [9], 0.0256 µM. The TGI in assay [1] turned out to be 0.0173 µM; in assay [2] it was 0.0235 µM; in assay [3], 0.0286 µM; in assay [10], 0.0287 µM; in assay [4], 0.0348 µM; in [5], 0.0358 µM. Moreover, the TGI turned out to be 0.116 µM in [7], 0.00384 µM in [8] and 0.0709 µM in assay [9].

With `COCCNc1cc(NC(=O)N2CCCc3cc(CN4CCN(C)CC4=O)c(C=O)nc32)ncc1C#N`, the GI50 in assay [2] is above 50 µM; in assay [3], 40.4 µM; in [10] it was above 50 µM; in assay [4] it was above 50 µM; in assay [5] it was above 50 µM; in assay [6] it was 44.8 µM. For the same compound, the GI50 in assay [7] was above 50 µM; in assay [8], above 50 µM; in assay [9], 1.59 µM. The TGI in assay [2], in assay [3], in assay [10], in assay [4], in [5] and in [6] was above 50 µM each time. For the same compound, the TGI is above 50 µM in [7], above 50 µM in assay [8] and 21.6 µM in [9].

With `CN(C(=O)c1ccncc1)c1ccccc1`, the TGI in assay [1], in assay [2], in assay [3], in [4], in assay [5] and in assay [6] was above 100 µM throughout. Moreover, the TGI in assay [7], in [8] and in assay [9] was above 100 µM each time.

As to `COC(=O)C1=C(OC(=O)c2ccc(Cl)cc2)C(C(=O)OC)[C@@]2(O)[C@@H](C(=O)OC)C(c3ccccc3Cl)C[C@@H]1[C@@H]2C(=O)OC` (stereo partly drawn), the GI50 is 2.23 µM in assay [1]; 8.11 µM in [2]; 5.47 µM in [3]; 4.3 µM in assay [10]; 2.81 µM in assay [4]; 4.07 µM in assay [5]. Further, the GI50 in assay [6] was 4.57 µM; in [7], 55.3 µM; in assay [9], 47.2 µM. The TGI was 6.96 µM in assay [1]; above 100 µM in [2]; above 100 µM in assay [3]; above 100 µM in assay [10]; 50.8 µM in assay [4]; 90.1 µM in assay [5]. The figures for the TGI in assay [6], in [7] and in [9] were 17.5 µM, above 100 µM and above 100 µM, respectively.

As to `COc1cc(C2C3=C(COC3=O)Nc3cc4c(cc32)CCC4)cc2c1OCO2` (stereo not drawn), the GI50 in [2] was 0.0453 µM; in assay [3], 0.0349 µM; in [10], 0.0452 µM; in [4] it was 0.0305 µM; in assay [5] it was 0.0743 µM; in assay [6] it was 0.0577 µM. Further, the GI50 in assay [7] is 0.231 µM; in [8] it was 0.0496 µM; in assay [9] it was 12.7 µM. Moreover, the TGI in assay [2] was above 34.5 µM; in assay [3], 13.3 µM; in assay [10], 14.6 µM; in assay [4], 0.12 µM; in assay [5], 3.48 µM; in assay [6], 5.11 µM. In addition, the TGI in assay [7] came out at 41.7 µM; in assay [8] it was 12.1 µM; in assay [9], 40.5 µM.

Take `O=C(COc1cccc(/C=C2\COc3ccc(Cl)cc3C2=O)c1)c1ccc(Cl)cc1`: the GI50 in assay [2] was 1.71 µM; in assay [3], 1.25 µM; in assay [10], 4.72 µM; in assay [4], 2.79 µM; in [5] it was 11.6 µM; in [6], 4.08 µM. Moreover, the GI50 in assay [7] was 13 µM; in assay [8], 3.2 µM; in [9] it was 0.536 µM. The TGI in assay [2] stood at 5.11 µM; in assay [3], 4.76 µM; in assay [10], 49 µM; in [4], 11.2 µM; in assay [5] it was 24.4 µM; in assay [6], 21.1 µM. Moreover, the TGI in assay [7] was 25.8 µM; in assay [8] it was 13.2 µM; in assay [9], 13.4 µM.

Take `CC(C)C1COC(c2cccc(C3=N[C@@H](C(C)C)CO3)n2)=N1` (stereo partly drawn): the TGI in [1], in assay [2], in [10], in [4], in [5] and in assay [7] was above 100 µM in each case. The TGI in [8] and in [9] was above 100 µM in each case.

Regarding `CS/C(=N\c1nccs1)NC(=O)c1cccc(Cl)c1`, the TGI in assay [1], in assay [2], in [10], in [4], in assay [5] and in assay [7] was above 100 µM throughout. The TGI in assay [8] and in [9] was above 100 µM each time.
